The target in assay [1] is T1, Amine oxidase [flavin-containing] A (Rattus norvegicus, UniProt P21396).
T1 sequence (P21396 whole entry): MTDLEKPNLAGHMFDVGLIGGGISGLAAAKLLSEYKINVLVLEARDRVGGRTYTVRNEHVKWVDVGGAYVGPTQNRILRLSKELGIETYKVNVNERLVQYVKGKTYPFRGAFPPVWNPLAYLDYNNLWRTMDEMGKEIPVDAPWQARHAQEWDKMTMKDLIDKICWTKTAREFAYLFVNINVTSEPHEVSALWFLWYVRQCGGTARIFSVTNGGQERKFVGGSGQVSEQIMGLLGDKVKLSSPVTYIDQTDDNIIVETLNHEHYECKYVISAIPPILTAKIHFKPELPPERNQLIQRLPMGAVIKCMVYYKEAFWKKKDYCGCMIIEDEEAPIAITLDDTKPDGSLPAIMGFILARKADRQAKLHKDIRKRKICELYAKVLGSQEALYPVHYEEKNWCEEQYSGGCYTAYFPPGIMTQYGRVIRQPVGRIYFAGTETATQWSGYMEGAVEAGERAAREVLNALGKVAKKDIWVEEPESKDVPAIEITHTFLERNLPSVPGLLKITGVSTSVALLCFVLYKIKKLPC
Kind of assay: MAO Inhibition Assay. To be noted: pH 7.4; 37 °C. The procedure: (§1) A continuous spectrophotometric assay that monitors the rate of oxidation of the nonselective MAO substrate kynuramine into 4-hydroxyquinoline was used. clorgyline or selegiline was preincubated with the suspension for 5 min to measure MAO-B or MAO-A activity, respectively. […] IC50 values were determined and calculated from a hyperbolic equation. Each assay was performed in triplicate on four to six separate homogenates.

Assay [2] concerns the target T2, Amine oxidase [flavin-containing] B (Rattus norvegicus, UniProt P19643).
T2 sequence (P19643 whole entry): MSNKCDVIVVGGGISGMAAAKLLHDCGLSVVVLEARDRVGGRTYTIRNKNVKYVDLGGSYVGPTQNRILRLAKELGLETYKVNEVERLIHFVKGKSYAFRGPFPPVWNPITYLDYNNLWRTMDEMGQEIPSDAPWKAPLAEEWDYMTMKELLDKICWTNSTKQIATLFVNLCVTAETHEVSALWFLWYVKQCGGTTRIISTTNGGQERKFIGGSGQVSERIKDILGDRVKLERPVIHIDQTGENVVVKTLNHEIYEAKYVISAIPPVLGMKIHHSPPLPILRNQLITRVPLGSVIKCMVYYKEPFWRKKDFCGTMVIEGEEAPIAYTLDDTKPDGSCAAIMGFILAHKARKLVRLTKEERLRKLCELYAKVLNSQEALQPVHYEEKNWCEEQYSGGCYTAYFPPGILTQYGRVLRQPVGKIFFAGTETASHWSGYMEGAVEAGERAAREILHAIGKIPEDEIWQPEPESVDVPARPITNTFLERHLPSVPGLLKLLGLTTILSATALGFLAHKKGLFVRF
Briefly: MAO Inhibition Assay. On the procedure: as §1

The structures appear in SMILES notation. A value given as a limit tells only on which side of the number the result lay.

With `c1ccc(-c2cc3c(nn2)-c2ccccc2C3)cc1`, the IC50 (commonly the midpoint of a concentration-inhibition curve) in assay [1] was more than 100 µM.
Take `c1ccc(-c2nc3cc4ccccc4c-3c[nH]2)cc1` [2-phenyl-9H-indeno[2,1-d]pyrimidine]: the values for the IC50 in assay [1] and in assay [2] were 16.7 µM and 13 µM, respectively.
